This passage reports IC50, EC50 and AC50 results from ChEMBL document CHEMBL1201862, “PubChem BioAssay data set” (2004).

In one assay the target is Phospholipase A2 (Homo sapiens, UniProt P04054). Format: functional.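 Note: confirmatory dose-response counterscreen on phospholipase A2, testing hits that came from an ultra-high-throughput screen for ATG4B inhibitors.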
Assay [1] in a line: inhibitors of Bluetongue virus cytopathic effect, confirmation, arbovirus, BSR cells (AID 1250).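 Note: protection from viral cytopathic effect measured as cell viability by ATP luminescence.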 Format: functional. Background: Damage to the host cells serves as the signal in cytopathic effect assays.
Assay [2] concerns the target T1, Probable nicotinate-nucleotide adenylyltransferase (Staphylococcus aureus (strain N315), UniProt P65502). Format: functional, Staphylococcus aureus subsp. aureus N315. The following applies: read-out: IC50_Mean.
The target in a further assay is T2, Cysteine protease ATG4B (Homo sapiens, UniProt Q9Y4P1).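 Note: Fluorescence-based dose-response confirmation assay measuring inhibition of ATG4B activity.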
T2 sequence (Q9Y4P1 whole entry): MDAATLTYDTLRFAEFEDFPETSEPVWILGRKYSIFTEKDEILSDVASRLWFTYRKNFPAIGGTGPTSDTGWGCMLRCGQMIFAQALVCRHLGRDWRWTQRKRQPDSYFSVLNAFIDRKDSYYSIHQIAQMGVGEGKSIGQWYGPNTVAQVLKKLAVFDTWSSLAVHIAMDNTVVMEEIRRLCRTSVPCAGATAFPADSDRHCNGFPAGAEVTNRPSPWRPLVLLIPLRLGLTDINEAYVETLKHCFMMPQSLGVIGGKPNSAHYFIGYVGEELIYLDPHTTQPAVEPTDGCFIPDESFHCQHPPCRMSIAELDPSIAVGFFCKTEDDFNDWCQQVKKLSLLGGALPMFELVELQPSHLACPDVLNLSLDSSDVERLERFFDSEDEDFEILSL
Format: functional.

Assay [3] deals with T1, Probable nicotinate-nucleotide adenylyltransferase. Format: functional, Staphylococcus aureus subsp. aureus N315.
Assay [4] can be described thus: StAR promoter reporter inhibition counter-screen, dose response, counter-screen for LRH-1 inverse agonist project, cell-based, luminescence, luciferase reporter (AID 651969). Format: functional. Background: A counterscreen serves to expose hits that act by an unwanted route or on another target.
Assay [5] concerns the target Nuclear receptor subfamily 5 group A member 2 (Homo sapiens, UniProt O00482). Format: functional, cell-based.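 Note: HEK293T cells transfected with LRH-1 and a StAR promoter luciferase reporter; potency for inhibitors that lower LRH-1 driven reporter light.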
A further assay addresses Steroidogenic factor 1 (Homo sapiens, UniProt Q13285). The assay can be described thus: Counterscreen for inverse agonists of the liver receptor homolog-1 (LRH-1; NR5A2): Luminescence-based cell-based high throughput dose response assay to identify inverse agonists of the Steroidogenic Factor 1 Nuclear Receptor (SF1; NR5A1). It is filed as functional.
Assay [6] in a line: enhancers of respiration in Yfh1-depleted yeast, dose response, Friedreich's ataxia, plus single-dose screen (AID 1465).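 Note: yeast depleted of Yfh1p frataxin homolog grown on glycerol needing respiration; WST-1 tetrazolium dye reduction as measure of cellular dehydrogenase metabolic activity.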 It is filed as functional.
A further assay has as its system HEK293. The assay can be described thus: Fluorescence-based counterscreen for potentiators or agonists of NPY-Y2: cell-based high-throughput dose response assay to identify inhibitors of cyclic nucleotide gated ion channel (CNGC) activity. In this assay, the parental HEK293 cell line transfected with a cyclic-nucleotide gated ion channel (CNGC)-based cAMP sensor is used to measure inhibition of isoproterenol-induced CNGC activity by test compound. It is filed as functional. The following applies: Homo sapiens.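 Note: stimulus is 1 µM isoproterenol at EC100 plus PDE inhibitor Ro 20-1724 at 25 µM.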

Assay [7] concerns the target Neuropeptide Y receptor type 2 (Homo sapiens, UniProt P49146). The assay can be described thus: Fluorescence-based cell-based high-throughput dose response assay for agonists of NPY-Y2. [Related pubchem assays: 1703 (Screening assay (CNGC inhibitors).), 1359 (Screening assay (NPY-Y2 potentiators or agonists).), 1304 (Screening assay (NPY-Y1 potentiators or agonists).), 1710 (Screening assay (NPY-Y2 agonists).), 1791 (Summary AID.)]. Format: functional.

Assay [8] is described as follows: Jurkat T cell cytotoxicity, dose response, cytotoxicity control for P. falciparum gametocyte viability project, luminescence (AID 1117277).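 Note: potency reflects loss of cellular ATP meaning fewer viable cells.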 Format: functional, cell-based.
Assay [9] is described as follows: P. falciparum late gametocyte killing, dose response, luminescence (AID 1117278).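 Note: gametocytes exposed to compound for 24 hours.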 It is filed as functional, cell-based.
The target of assay [10] is Neuropeptide Y receptor type 1 (Homo sapiens, UniProt P25929). Kind of assay: Fluorescence-based counterscreen for agonists of NPY-Y2: cell-based high-throughput dose response assay for agonists of NPY-Y1. Format: functional.
Chain of Neuropeptide Y receptor type 1 (P25929 whole entry): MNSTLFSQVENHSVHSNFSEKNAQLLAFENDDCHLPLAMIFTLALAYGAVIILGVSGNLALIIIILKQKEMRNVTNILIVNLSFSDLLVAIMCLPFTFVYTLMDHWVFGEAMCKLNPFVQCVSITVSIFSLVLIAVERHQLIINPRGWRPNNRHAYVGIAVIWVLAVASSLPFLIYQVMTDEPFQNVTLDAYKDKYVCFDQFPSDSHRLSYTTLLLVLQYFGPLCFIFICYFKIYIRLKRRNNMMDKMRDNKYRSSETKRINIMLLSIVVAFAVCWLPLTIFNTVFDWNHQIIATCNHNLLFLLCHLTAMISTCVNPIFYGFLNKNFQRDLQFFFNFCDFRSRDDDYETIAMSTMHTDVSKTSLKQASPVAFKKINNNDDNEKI
The nature of assay [11]: cytotoxicity in MIN6 insulinoma cells, dose response, cytotoxicity control, cell-based, mouse insulinoma (AID 2122).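 Note: confirmatory high-throughput counterscreen run to flag cytotoxic compounds; mouse MIN-6 beta cells carrying an insulin promoter eGFP reporter.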 Format: functional.
The subject of assay [12] is Streptococcus sp. 'group A'. Kind of assay: growth inhibition of control SK(-) GAS strain, dose response, counter-screen for streptokinase expression inhibitor project, luminescence, kanamycin, BacTiterGlo, confirmation (AID 1900). Format: functional, organism-based.
For another assay, the system named is INS1. Kind of assay: beta cell apoptosis inhibitors, cytokine rescue, dose response, luminescence, retest (AID 449756).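 Note: cell death triggered by IL-1 beta plus TNF-alpha plus IFN-gamma mixture; protective hits raise ATP signal compared with cytokine alone wells.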 It is filed as functional, cell-based. Particulars: Rattus norvegicus.
The target of assay [13] is Serine/threonine-protein phosphatase PP1-alpha catalytic subunit (Homo sapiens, UniProt P62136). The assay can be described thus: PP1 phosphatase inhibitors, dose response, biochemical, fluorescence (AID 2403).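 Note: phosphatase turnover of OMFP into fluorescent 3-O-methylfluorescein.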
Chain of Serine/threonine-protein phosphatase PP1-alpha catalytic subunit (P62136 whole entry): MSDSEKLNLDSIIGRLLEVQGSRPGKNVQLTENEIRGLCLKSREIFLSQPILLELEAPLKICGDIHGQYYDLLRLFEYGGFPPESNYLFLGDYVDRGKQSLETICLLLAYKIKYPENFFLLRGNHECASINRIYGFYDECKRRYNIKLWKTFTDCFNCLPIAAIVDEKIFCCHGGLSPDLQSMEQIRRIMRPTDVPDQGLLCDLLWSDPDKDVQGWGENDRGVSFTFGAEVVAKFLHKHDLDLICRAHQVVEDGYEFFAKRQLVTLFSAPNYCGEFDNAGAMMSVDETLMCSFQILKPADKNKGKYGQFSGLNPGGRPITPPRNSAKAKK
In another assay the test system is Streptococcus. The assay can be described thus: Group A Streptococcus viability loss, dose response, counter-screen for streptokinase expression inhibitor project, luminescence, BacTiterGlo (AID 1915).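 Note: potency for reduction of bacterial viability or growth.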 It is filed as functional, organism-based.
Assay [14] is described as follows: Artemis endonuclease inhibitor potency, dose response, biochemical, fluorescence intensity (AID 720701).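 Note: Artemis endonuclease enzyme.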 Format: functional.
Assay [15] has as its target Serine/threonine-protein phosphatase (Homo sapiens, UniProt Q9BPW0). The assay can be described thus: Counterscreen for inhibitors of PP1: fluorescence-based biochemical high throughput dose response assay to identify inhibitors of Protein Phosphatase 5 (PP5). [Related pubchem assays: 2034 (Summary (PP5 inhibitors)), 1987 (PP5 inhibitors in singlate), 2235 (PP1 inhibitors in singlate)].

Assay [16] can be described thus: insulin promoter down-regulators in MIN6 cells, imaging, high-content screening, mouse beta cells (AID 1628). Format: functional.
The target of assay [17] is Mothers against decapentaplegic homolog 3 (Homo sapiens, UniProt P84022). Kind of assay: Smad3 binding inhibitors, lysate ELISA, dose response, cell lysate, secondary confirmation, chemiluminescent ELISA, HEK293 lysate (AID 1058). It is filed as functional. On the technique in general: In an ELISA, binding on a coated surface is turned into a signal by an enzyme label.
Chain of Mothers against decapentaplegic homolog 3 (P84022 whole entry): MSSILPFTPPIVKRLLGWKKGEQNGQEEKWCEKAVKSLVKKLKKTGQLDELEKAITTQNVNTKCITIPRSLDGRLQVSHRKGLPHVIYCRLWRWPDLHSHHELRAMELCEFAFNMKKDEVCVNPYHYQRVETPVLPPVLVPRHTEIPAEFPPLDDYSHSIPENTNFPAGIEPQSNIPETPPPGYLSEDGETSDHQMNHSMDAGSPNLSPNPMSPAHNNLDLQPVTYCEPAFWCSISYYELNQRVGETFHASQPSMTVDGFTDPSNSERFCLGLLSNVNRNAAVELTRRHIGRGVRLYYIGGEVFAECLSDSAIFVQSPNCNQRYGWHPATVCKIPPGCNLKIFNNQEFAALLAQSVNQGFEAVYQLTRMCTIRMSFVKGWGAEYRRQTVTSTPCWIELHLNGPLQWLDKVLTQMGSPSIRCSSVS

The target in another assay is Cytochrome P450 2D6 (Homo sapiens, UniProt P10635). Kind of assay: qHTS Assay for Inhibitors and Substrates of Cytochrome P450 2D6. [Related pubchem assays: 410 ]. Particulars: read-out: Potency. It is filed as ADME.
Chain of Cytochrome P450 2D6 (P10635 whole entry): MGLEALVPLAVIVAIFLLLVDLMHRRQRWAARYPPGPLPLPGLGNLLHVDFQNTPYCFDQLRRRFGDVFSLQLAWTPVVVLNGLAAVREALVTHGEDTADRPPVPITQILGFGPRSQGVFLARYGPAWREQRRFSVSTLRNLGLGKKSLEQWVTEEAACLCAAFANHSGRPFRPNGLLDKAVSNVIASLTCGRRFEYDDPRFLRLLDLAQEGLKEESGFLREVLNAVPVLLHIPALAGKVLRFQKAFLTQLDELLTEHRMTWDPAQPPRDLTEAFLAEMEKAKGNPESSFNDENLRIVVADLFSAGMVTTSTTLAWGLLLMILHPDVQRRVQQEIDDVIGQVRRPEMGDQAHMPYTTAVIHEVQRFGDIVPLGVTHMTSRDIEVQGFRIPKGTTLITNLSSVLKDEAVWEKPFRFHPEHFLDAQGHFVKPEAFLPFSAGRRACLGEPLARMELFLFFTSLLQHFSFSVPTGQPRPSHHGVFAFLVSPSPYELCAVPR

Activity calls are given as the source filed them. Bounds are passed on as bounds.
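Throughout, for IC50 Mean: confirmatory dose-response retesting of NadD inhibitor hits first found in an ultra-high-throughput screen.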

T1 sequence (P65502 whole entry): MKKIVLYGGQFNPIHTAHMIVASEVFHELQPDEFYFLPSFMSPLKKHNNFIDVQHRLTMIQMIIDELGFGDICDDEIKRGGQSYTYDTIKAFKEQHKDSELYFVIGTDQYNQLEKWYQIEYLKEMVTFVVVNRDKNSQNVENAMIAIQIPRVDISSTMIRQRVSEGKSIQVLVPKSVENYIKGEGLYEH
Chain of Neuropeptide Y receptor type 2 (P49146 whole entry): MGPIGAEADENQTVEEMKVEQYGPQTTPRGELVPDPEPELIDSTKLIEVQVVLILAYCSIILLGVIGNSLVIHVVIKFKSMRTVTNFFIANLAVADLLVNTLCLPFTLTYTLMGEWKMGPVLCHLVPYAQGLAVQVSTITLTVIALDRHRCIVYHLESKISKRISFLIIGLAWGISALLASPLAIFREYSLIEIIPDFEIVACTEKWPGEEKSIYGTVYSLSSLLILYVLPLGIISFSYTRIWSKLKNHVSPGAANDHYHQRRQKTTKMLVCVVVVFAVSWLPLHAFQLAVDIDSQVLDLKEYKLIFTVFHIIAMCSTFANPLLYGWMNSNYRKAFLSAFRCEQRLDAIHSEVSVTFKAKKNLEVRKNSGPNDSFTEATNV
Chain of Phospholipase A2 (P04054 whole entry): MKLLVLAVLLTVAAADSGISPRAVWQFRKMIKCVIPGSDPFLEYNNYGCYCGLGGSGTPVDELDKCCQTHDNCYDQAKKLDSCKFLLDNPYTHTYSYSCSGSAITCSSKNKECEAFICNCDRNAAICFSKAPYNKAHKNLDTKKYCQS
Chain of Nuclear receptor subfamily 5 group A member 2 (O00482 whole entry): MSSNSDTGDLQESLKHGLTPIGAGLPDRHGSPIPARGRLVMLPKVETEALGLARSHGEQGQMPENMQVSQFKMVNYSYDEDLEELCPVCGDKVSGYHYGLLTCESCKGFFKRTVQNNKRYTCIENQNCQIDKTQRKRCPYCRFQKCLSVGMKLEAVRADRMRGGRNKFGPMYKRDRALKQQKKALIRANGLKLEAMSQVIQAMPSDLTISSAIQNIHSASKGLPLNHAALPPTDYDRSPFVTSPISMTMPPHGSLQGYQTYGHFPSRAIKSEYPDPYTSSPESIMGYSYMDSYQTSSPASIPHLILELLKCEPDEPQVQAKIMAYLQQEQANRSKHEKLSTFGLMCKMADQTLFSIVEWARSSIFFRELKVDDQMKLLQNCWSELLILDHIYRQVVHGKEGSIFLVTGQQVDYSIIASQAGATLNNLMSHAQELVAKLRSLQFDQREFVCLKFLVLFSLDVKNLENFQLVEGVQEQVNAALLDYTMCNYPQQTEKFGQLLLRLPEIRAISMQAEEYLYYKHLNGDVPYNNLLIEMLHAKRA
Chain of Serine/threonine-protein phosphatase (Q9BPW0 whole entry): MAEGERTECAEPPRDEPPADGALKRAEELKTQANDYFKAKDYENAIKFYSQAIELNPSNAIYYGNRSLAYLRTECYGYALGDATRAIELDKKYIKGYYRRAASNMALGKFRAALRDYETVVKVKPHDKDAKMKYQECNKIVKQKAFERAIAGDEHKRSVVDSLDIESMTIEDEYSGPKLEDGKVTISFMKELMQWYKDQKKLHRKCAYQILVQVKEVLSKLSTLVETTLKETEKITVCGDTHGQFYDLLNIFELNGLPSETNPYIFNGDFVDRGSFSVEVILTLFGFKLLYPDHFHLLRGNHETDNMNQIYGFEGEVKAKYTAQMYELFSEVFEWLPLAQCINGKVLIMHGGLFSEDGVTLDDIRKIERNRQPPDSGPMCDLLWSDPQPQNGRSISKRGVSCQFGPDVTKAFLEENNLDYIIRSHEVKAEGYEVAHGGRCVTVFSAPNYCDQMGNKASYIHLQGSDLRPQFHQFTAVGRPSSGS
Chain of Steroidogenic factor 1 (Q13285 whole entry): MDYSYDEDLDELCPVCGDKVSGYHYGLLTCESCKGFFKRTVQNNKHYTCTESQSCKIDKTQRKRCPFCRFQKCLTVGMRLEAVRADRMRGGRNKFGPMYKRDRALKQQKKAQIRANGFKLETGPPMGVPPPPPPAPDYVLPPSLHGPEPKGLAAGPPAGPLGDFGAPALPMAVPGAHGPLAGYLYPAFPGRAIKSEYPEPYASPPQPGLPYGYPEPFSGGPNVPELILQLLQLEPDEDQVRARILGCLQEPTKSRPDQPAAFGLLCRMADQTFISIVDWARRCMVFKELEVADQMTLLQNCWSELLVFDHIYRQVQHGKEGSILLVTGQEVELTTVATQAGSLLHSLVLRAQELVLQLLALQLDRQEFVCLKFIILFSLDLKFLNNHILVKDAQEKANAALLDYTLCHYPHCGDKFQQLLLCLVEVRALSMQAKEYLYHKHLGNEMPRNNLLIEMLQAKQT

Consider `CCc1nnc(NS(=O)(=O)c2ccc(N/C=C\C(=O)c3ccc4ccccc4c3)cc2)s1`, for which the IC50 on Phospholipase A2 is 9.13 µM (active); in [1], 62.9 µM (active); in assay [2] it was 29.7 µM (active); on Cysteine protease ATG4B, 11.1 µM (active); in assay [3] it was 5.19 µM (active).

Regarding `CC1CC(C)CN(c2cc(N(C)CCO)c([N+](=O)[O-])c3nonc23)C1` (centres undefined), the results for the IC50 (in assay [4]; in assay [5]; at Steroidogenic factor 1) were 35.9 µM (inactive), 6.21 µM (active) and 2.15 µM (active), respectively. In addition, the concentration giving a half-maximal response (EC50) (as a rule, the midpoint of the concentration-response curve) in assay [6] is > 100 µM (active).

As for `O=C(O)c1ccc(OCc2cn3ccccc3n2)cc1`, the EC50 (with HEK293; in assay [7]; in assay [10]) was > 35.4 µM (not active) in each case. The values for the IC50 in assay [8] and in assay [9] were > 83.2 µM (inactive) and > 109 µM (inactive), respectively.

In the case of `c1ccc(N2CCN(c3nc(-c4ccccn4)nc4ccccc34)CC2)cc1`, the IC50 in [11] was 1.67 µM (active); in assay [13], 6.28 µM (active); in assay [14] it was 3.59 µM (active); in assay [15], > 22.3 µM (not active); in [16] it was 2.4 µM (active). Besides, the EC50 is 0.433 µM (active) in assay [12] and 8.15 µM (active) in the assay with Streptococcus. Further, the AC50 with INS1 was 3.01 µM (active).

Take `Oc1cc2c(cc1C(c1ccc(F)cc1)N1CCCC1)OCO2` (centres undefined): the IC50 in assay [17] is recorded as 23.3 µM (not active).

On to `CCN1C(C)=C(C(=O)OC)C(c2ccccc2)N2C(=O)[C@](O)(C(=O)OC)C(c3ccccc3)C(C(=O)c3ccccc3)=C12` (some centres undefined), for which, at Cytochrome P450 2D6, the AC50 was 3.16 µM (inconclusive).
